Source: the supplement of paper PMC9013687

System: Danio rerio embryo
Test: spontaneous tail coiling frequency (coils/min/embryo); higher = more spontaneous movement
Conditions: 25 hpf
Method: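 Spontaneous tail coilings of zebrafish embryos exposed from 2 hpf were recorded at 24-25 hpf in 1-min videos and detected by a KNIME workflow from grey-value variance. Betamethasone was tested as the dipropionate, diflorasone as the diacetate.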

COc1ccc(Cl)cc1C(=O)NCCc1ccc(S(=O)(=O)NC(=O)NC2CCCCC2)cc1 [Glibenclamide]
Conditions	spontaneous tail coiling frequency
3.16 µM	1.79
3.2 µM	0.98
6.3 µM	1.48
6.33 µM	1.79
12.65 µM	0.8
12.7 µM	1.41
25.3 µM	1.69
50.6 µM	1.97
50.61 µM	1.66
